Where two headings read alike, the source gives them in different places.
Tests used:
HCV genotype 1b replicon = test: HCV replicon assay, genotype 1b replicon EC50; assay type: cell-based, Hepatitis C virus; details: Hepatitis C virus, read-out: EC50 [gt-1b]
In short: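 Readout was replicon RNA copy number, by 32P-probe protection or TaqMan normalized to cellular cyclophilin A RNA, or luciferase activity for luciferase:Neo^r fusion lines. Cells were exposed to serially diluted compound for 24-48 hours without G418, then washed and lysed. EC50 derived from four-parameter fit relative to DMSO.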

[1] = target: HCV NS3/4A protease genotype 1b (Hepatitis C virus genotype 1b, UniProt P26663); test: HCV NS3/4A protease time-resolved fluorescence (TRF) assay, Ki against genotype 1b; assay type: biochemical
In short: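 Ki was converted from fitted IC50 using IC50=Ki(1+[S]/KM) and 25 nM substrate. Protease (genotype 1b 0.2 nM, A156T 0.4 nM, 3a 0.025 nM) and compound were pre-mixed 30 min in pH 7.5 HEPES/NaCl/glycerol/DTT buffer. Cleavage then proceeded 2.5 h at room temperature, detected by time-resolved europium fluorescence (340/615 nm).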

[2] = IC50 [gt-1b], NS3/4A protease TRF assay, genotype 1b enzyme 0.2 nM
[3] = IC50 [gt-1b] (nM), NS3/4A genotype 1b, enzyme 0.2 nM

Compound: CCc1nc2ccc(OC)cc2c2c1O[C@]1(CC2)C[C@H]2C(=O)N[C@]3(C(=O)NS(=O)(=O)C4(C)CC4)C[C@H]3/C=C\CCCCC[C@H](NC(=O)c3c(C)n[nH]c3C)C(=O)N2C1 [Example 485, (2R,6S,12Z,13aS,14aR,16aS)-6-{[(3,5-dimethyl-1H-pyrazol-4-yl)carbonyl]amino}-5′-ethyl-9′-methoxy-N-[(1-methylcyclopropyl)sulfonyl]-5,16-dioxo-1,1′,2′,6,7,8,9,10,11,13a,14,15,16,16a-tetradecahydrospiro[cyclopropa[e]pyrrolo[1,2-a][1,4]diazacyclopentadecine-2,3′-pyrano[2,3-c]quinoline]-14a(5H)-carboxamide]
- EC50 (HCV genotype 1b replicon; HCV replicon, genotype 1b): 0.306 nM
- IC50 [1, 2]: 0.005 nM

Compound: CC(C)C1(OC(=O)N[C@H]2CCCCC/C=C\[C@@H]3C[C@@]3(C(=O)NS(=O)(=O)C3(C)CC3)NC(=O)[C@@H]3C[C@]4(CCc5c(c(C6CC6)nc6c(F)cccc56)O4)CN3C2=O)CC1 [Example 167, 1-(propan-2-yl)cyclopropyl [(2R,6S,12Z,13aS,14aR,16aS)-5′-cyclopropyl-7′-fluoro-14a-{[(1-methylcyclopropyl)sulfonyl]carbamoyl}-5,16-dioxo-1,1′,2′,5,6,7,8,9,10,11,13a,14,14a,15,16,16a-hexadecahydrospiro[cyclopropa[e]pyrrolo[1,2-a][1,4]diazacyclopentadecine-2,3′-pyrano[2,3-c]quinolin]-6-yl]carbamate]
- EC50 (HCV genotype 1b replicon; genotype 1b replicon): 1.88 nM
- IC50 [1, 3]: 0.02 nM

Compound: CC1(S(=O)(=O)NC(=O)[C@@]23C[C@H]2/C=C\CCCCC[C@H](NC(=O)OC2CCCC2)C(=O)N2C[C@@]4(CCc5c(c(C(F)(F)F)nc6ccc(Cl)cc56)O4)C[C@H]2C(=O)N3)CC1 [Example 384, cyclopentyl [(2R,6S,12Z,13aS,14aR,16aS)-9′-chloro-14a-{[(1-methylcyclopropyl)sulfonyl]carbamoyl}-5,16-dioxo-5′-(trifluoromethyl)-1,1′,2′,5,6,7,8,9,10,11,13a,14,14a,15,16,16a-hexadecahydrospiro[cyclopropa[e]pyrrolo[1,2-a][1,4]diazacyclopentadecine-2,3′-pyrano[2,3-c]quinolin]-6-yl]carbamate]
- EC50 (HCV genotype 1b replicon; HCV replicon, genotype 1b): 19.8 nM
- IC50 [1, 2]: 0.023 nM

Compound: Cc1nc2ccccc2c2c1O[C@]1(CC2)C[C@H]2C(=O)N[C@]3(C(=O)NS(=O)(=O)C4(C)CC4)C[C@H]3/C=C\CCCCC[C@H](N)C(=O)N2C1 [Example 344, (2R,6S,12Z,13aS,14aR,16aS)-6-amino-5′-methyl-N-[(1-methylcyclopropyl)sulfonyl]-5,16-dioxo-1,1′,2′,6,7,8,9,10,11,13a,14,15,16,16a-tetradecahydrospiro[cyclopropa[e]pyrrolo[1,2-a][1,4]diazacyclopentadecine-2,3′-pyrano[2,3-c]quinoline]-14a(5H)-carboxamide]
- EC50 (HCV genotype 1b replicon; genotype 1b replicon): 662 nM
- IC50 [1, 3]: 0.685 nM

Compound: Cc1nc2ccc(OC(F)(F)F)cc2c2c1O[C@]1(CC2)C[C@H]2C(=O)N[C@]3(C(=O)NS(=O)(=O)C4(C)CC4)C[C@H]3/C=C\CCCCC[C@H](NC(=O)OC(C)(C)C(F)(F)F)C(=O)N2C1 [Example 298, 1,1,1-trifluoro-2-methylpropan-2-yl [(2R,6S,12Z,13aS,14aR,16aS)-5′-methyl-14a-{[(1-methylcyclopropyl)sulfonyl]carbamoyl}-5,16-dioxo-9′-(trifluoromethoxy)-1,1′,2′,5,6,7,8,9,10,11,13a,14,14a,15,16,16a-hexadecahydrospiro[cyclopropa[e]pyrrolo[1,2-a][1,4]diazacyclopentadecine-2,3′-pyrano[2,3-c]quinolin]-6-yl]carbamate]
- EC50 (HCV genotype 1b replicon; genotype 1b replicon): 6.31 nM
- IC50 [1, 3]: 0.017 nM

Compound: COc1ccc2nc(C3CC3)c3c(c2c1)CC[C@]1(C[C@H]2C(=O)N[C@]4(C(=O)NS(=O)(=O)C5(C)CC5)C[C@H]4/C=C\CCCCC[C@H](NC(=O)OC4(C)CCC4)C(=O)N2C1)O3 [Example 152, 1-methylcyclobutyl [(2R,6S,12Z,13aS,14aR,16aS)-5′-cyclopropyl-9′-methoxy-14a-{[(1-methylcyclopropyl)sulfonyl]carbamoyl}-5,16-dioxo-1,1′,2′,5,6,7,8,9,10,11,13a,14,14a,15,16,16a-hexadecahydrospiro[cyclopropa[e]pyrrolo[1,2-a][1,4]diazacyclopentadecine-2,3′-pyrano[2,3-c]quinolin]-6-yl]carbamate]
- EC50 (HCV genotype 1b replicon; genotype 1b replicon, K+ salt): 0.729 nM
- IC50 ([1]; IC50 [gt-1b] (nM), NS3/4A genotype 1b, enzyme 0.2 nM, K+ salt): 0.014 nM

Compound: COc1ccc2nc(C)c3c(c2c1)CC[C@]1(C[C@H]2C(=O)N[C@]4(C(=O)NS(=O)(=O)C5(C)CC5)C[C@H]4/C=C\CCCCC[C@H](NC(=O)OC4(C)CC4)C(=O)N2C1)O3 [Example 141, 1-methylcyclopropyl [(2R,6S,12Z,13aS,14aR,16aS)-9′-methoxy-5′-methyl-14a-{[(1-methylcyclopropyl)sulfonyl]carbamoyl}-5,16-dioxo-1,1′,2′,5,6,7,8,9,10,11,13a,14,14a,15,16,16a-hexadecahydrospiro[cyclopropa[e]pyrrolo[1,2-a][1,4]diazacyclopentadecine-2,3′-pyrano[2,3-c]quinolin]-6-yl]carbamate]
- EC50 (HCV genotype 1b replicon; genotype 1b replicon): 1.47 nM
- IC50 [1, 3]: 0.003 nM

Compound: Cc1nc2ccccc2c2c1O[C@]1(CC2)C[C@H]2C(=O)N[C@]3(C(=O)NS(=O)(=O)C4(C)CC4)C[C@H]3/C=C\CCCCC[C@H](NC(=O)N3CCCCC3)C(=O)N2C1 [Example 290, (2R,6S,12Z,13aS,14aR,16aS)-5′-methyl-N-[(1-methylcyclopropyl)sulfonyl]-5,16-dioxo-6-[(piperidin-1-ylcarbonyl)amino]-1,1′,2′,6,7,8,9,10,11,13a,14,15,16,16a-tetradecahydrospiro[cyclopropa[e]pyrrolo[1,2-a][1,4]diazacyclopentadecine-2,3′-pyrano[2,3-c]quinoline]-14a(5H)-carboxamide]
- EC50 (HCV genotype 1b replicon; genotype 1b replicon, HCOOH salt): 7.02 nM
- IC50 ([1]; IC50 [gt-1b] (nM), NS3/4A genotype 1b, enzyme 0.2 nM, HCOOH salt): 0.017 nM

Compound: CC1(C)CCCC1OC(=O)N[C@H]1CCCCC/C=C\[C@@H]2C[C@@]2(C(=O)NS(=O)(=O)C2(C)CC2)NC(=O)[C@@H]2C[C@]3(CCc4c(c(C5CC5)nc5c(F)cccc45)O3)CN2C1=O (stereo partly drawn) [Example 187, 2,2-dimethylcyclopentyl [(2R,6S,12Z,13aS,14aR,16aS)-5′-cyclopropyl-7′-fluoro-14a-{[(1-methylcyclopropyl)sulfonyl]carbamoyl}-5,16-dioxo-1,1′,2′,5,6,7,8,9,10,11,13a,14,14a,15,16,16a-hexadecahydrospiro[cyclopropa[e]pyrrolo[1,2-a][1,4]diazacyclopentadecine-2,3′-pyrano[2,3-c]quinolin]-6-yl]carbamate]
- EC50 (HCV genotype 1b replicon; genotype 1b replicon): 8.33 nM
- IC50 [1, 3]: 0.023 nM

Compound: Cc1nc2ccc(OCC(F)(F)F)cc2c2c1O[C@]1(CC2)C[C@H]2C(=O)N[C@]3(C(=O)NS(=O)(=O)C4(C)CC4)C[C@H]3/C=C\CCCCC[C@H](NC(=O)OC3(C)CCCC3)C(=O)N2C1 [Example 302, 1-methylcyclopentyl [(2R,6S,12Z,13aS,14aR,16aS)-5′-methyl-14a-{[(1-methylcyclopropyl)sulfonyl]carbamoyl}-5,16-dioxo-9′-(2,2,2-trifluoroethoxy)-1,1′,2′,5,6,7,8,9,10,11,13a,14,14a,15,16,16a-hexadecahydrospiro[cyclopropa[e]pyrrolo[1,2-a][1,4]diazacyclopentadecine-2,3′-pyrano[2,3-c]quinolin]-6-yl]carbamate]
- EC50 (HCV genotype 1b replicon; genotype 1b replicon): 4.19 nM
- IC50 [1, 3]: 0.006 nM

Reference: US8987195B2 (priority 2012, dated 2015)
